Source: publication PMC2610240 (Drug metabolism and disposition: the biological fate of …, 2008)
Where “and” joins values, the source holds several entries; their conditions need not be identical. Equal entries are not always repeated.

Assays:
[1] = molecular target: T1, purified recombinant human CPR (NADPH-cytochrome P450 reductase) (Homo sapiens, UniProt P16435); experiment: Inhibition of recombinant CPR activity; conditions: recombinant enzyme
T1 sequence (P16435 1-677): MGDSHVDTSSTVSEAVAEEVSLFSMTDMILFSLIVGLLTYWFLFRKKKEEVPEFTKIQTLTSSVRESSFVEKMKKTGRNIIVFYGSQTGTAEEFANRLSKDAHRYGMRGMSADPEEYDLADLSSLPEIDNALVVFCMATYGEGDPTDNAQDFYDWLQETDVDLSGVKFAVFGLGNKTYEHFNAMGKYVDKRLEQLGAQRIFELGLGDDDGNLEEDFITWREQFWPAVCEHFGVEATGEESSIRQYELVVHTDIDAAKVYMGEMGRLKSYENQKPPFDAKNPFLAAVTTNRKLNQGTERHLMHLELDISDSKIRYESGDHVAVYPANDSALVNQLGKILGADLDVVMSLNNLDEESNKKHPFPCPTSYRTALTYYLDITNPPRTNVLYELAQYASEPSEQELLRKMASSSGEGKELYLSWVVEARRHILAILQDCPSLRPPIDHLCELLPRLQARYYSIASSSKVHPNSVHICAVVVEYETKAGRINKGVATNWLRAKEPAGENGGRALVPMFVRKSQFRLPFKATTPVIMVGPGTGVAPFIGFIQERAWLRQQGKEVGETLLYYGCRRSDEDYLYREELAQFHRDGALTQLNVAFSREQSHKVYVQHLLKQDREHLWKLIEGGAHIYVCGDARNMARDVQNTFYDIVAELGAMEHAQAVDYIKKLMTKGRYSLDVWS

[2] = molecular target: T2, purified recombinant human b5R (NADH b5 reductase) (Homo sapiens, UniProt P00387); experiment: Inhibition of recombinant b5R activity; assay type: biochemical
T2 sequence (P00387 1-301): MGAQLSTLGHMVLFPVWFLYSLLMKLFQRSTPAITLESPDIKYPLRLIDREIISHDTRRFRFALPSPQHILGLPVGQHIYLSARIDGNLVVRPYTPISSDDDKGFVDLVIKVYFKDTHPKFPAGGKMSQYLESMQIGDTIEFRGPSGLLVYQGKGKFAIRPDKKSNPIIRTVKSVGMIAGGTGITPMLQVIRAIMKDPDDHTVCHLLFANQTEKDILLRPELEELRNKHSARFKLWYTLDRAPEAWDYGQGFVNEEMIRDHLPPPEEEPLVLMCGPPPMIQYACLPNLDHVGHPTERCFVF

[3] = molecular target: T3, b5R activity in human liver microsomes (Homo sapiens, UniProt P00387); experiment: Inhibition of b5R activity in HLMs; assay type: biochemical
T3 sequence (P00387 1-301): T2 sequence (P00387 1-301)

[4] = molecular target: T1, purified recombinant human CPR (NADPH-cytochrome P450 reductase); experiment: biochemical
[5] = molecular target: T4, CPR activity in human liver microsomes (Homo sapiens, UniProt P16435); experiment: Inhibition of CPR activity in HLMs
T4 sequence (P16435 1-677): T1 sequence (P16435 1-677)

[6] = test system: CPR activity in rat liver microsomes; conditions: concentrations up to 10 mM, ref Lee and Kariya, 1986; cited from earlier work
[7] = test system: b5R activity in rat liver microsomes; conditions: concentrations up to 10 mM, ref Lee and Kariya, 1986; cited from earlier work

reduction in CPR activity ([1]; 2 mM α-lipoic acid, maximal effect) [%] | IC50 [2] [µM] | reduction in b5R activity ([2]; recombinant enzyme, 2 mM α-lipoic acid, maximal effect) [%] | reduction in b5R activity ([3]; 2 mM α-lipoic acid) [%] | IC50 [4] [µM] | reduction in CPR activity ([5]; 2 mM α-lipoic acid) [%] | decrease in CPR activity ([1]; 4 mM PTU) [%] | decrease in b5R activity ([2]; recombinant enzyme, 4 mM PTU, 15 min pre-incubation at 25°C) [%] | reduction in b5R activity ([3]; 4 mM PTU (highest concentration), 15 min pre-incubation at 25°C) [%] | maximal inhibition of b5R activity ([3]; over 1 to 4 mM PTU) | reduction in CPR activity ([5]; 4 mM PTU (highest concentration)) | SMILES | effect on CPR activity [6] | effect on b5R activity [7]
92 | 50 ± 50 | 84 | 54 | 140 ± 20 | 76 | – | – | – | – | – | O=C(O)CCCCC1CCSS1 (stereo not drawn) [α-lipoic acid] | – | –
– | – | – | – | – | – | 51 | 78 | 41 | about 40% | 16% and < 20% | CCCc1cc(=O)[nH]c(=S)[nH]1 [PTU, 6-propyl-2-thiouracil] | without reducing CPR activity | selectively inhibit b5R activity
